Reference: US5760235A, “Anticoagulant peptide derivatives and pharmaceutical compositions containing the same as well as a process for preparation thereof” (Gyogyszerkutato Intezet Kft., priority 1992, dated 1998)

How the values were obtained:
[1] = tested on: citrated blood plasma; assay: In vitro thrombin time (TT), citrated blood plasma; format: biochemical, human; design: unit not given here
Procedure: (§1) The antithrombin activity of the compounds of general formula (I) was determined by the usual method [Bagdy et al.: Thromb Haemostas 67, 325-330 (1992)] by measuring whole blood clotting time (WBCT), thrombin time (TT) and activated partial thromboplastin time (APTT). The in vitro activity of some compounds of the invention assayed on native human blood (non-anticoagulated clotting) (WBCT) and on citrated blood plasma (TT and APTT) is presented in Table 1.
(§2) ^2 WBCT = whole blood clotting time, TT = thrombin time, APTT =
(§3) activated partial thromboplastin time parameter. The figures represent
(§4) concentrations of the compounds required to double the clotting time of
(§5) native whole human blood or of citrated blood plasma.

[2] = tested on: fibrinolysis induced by tissue plasminogen activator; assay: Fibrinolysis induced by tissue plasminogen activator, thromboelastogram; format: biochemical
Text: The compounds of the general formula (I) inhibit clot formation without interfering with the natural lysis of blood clots in the body, e.g. fibrinolysis. […] Thromboelastography. In: Bang N. U., F. K. Beller, E. Deutsch, E. F. Mamman eds. Thrombosis and Bleeding Disorders. Theory and Methods. Academic Press, London, 1971: 70-76].

[3] = tested on: native whole human blood; assay: In vitro whole blood clotting time (WBCT), native human blood; format: biochemical; design: unit not given here
Procedure: as §1, §2, §3, §4, §5

[4] = tested on: citrated blood plasma; assay: In vitro activated partial thromboplastin time (APTT), citrated blood plasma; format: biochemical, human; design: unit not given here
Procedure: as §1, §2, §3, §4, §5

SMILES | TT: concentration required to double the clotting time [1] | inhibitory effect on fibrinolysis induced by tissue plasminogen activator [2] | WBCT: concentration required to double the clotting time [3] | APTT: concentration required to double the clotting time [4]
N=C(N)NCCC[C@@H](C=O)NC(=O)[C@H]1CCCN1C(=O)C(O)C1CCCCC1.N=C(N)NCCC[C@@H](C=O)NC(=O)[C@H]1CCCN1C(=O)C(O)C1CCCCC1.O=S(=O)(O)O (stereo partly drawn) [Example 8, D-2-Cyclohexyl-2-hydroxyacetyl-L-prolyl-L-arginine aldehyde hemisulfate] | 0.100 | only negligible inhibitory effect | 0.72 | 0.35
N=C(N)NCCC[C@@H](C=O)NC(=O)[C@@H]1CCCN1C(=O)[C@H](O)C(c1ccccc1)c1ccccc1.N=C(N)NCCC[C@@H](C=O)NC(=O)[C@@H]1CCCN1C(=O)[C@H](O)C(c1ccccc1)c1ccccc1.O=S(=O)(O)O [Example 12, 3,3-Diphenyl-D-lactyl-L-prolyl-L-arginine aldehyde hemisulfate] | 0.077 |  | 0.52 | 0.12
N=C(N)NCCC[C@@H](C=O)NC(=O)[C@H]1CCCN1C(=O)C(O)c1ccc2ccccc2c1.N=C(N)NCCC[C@@H](C=O)NC(=O)[C@H]1CCCN1C(=O)C(O)c1ccc2ccccc2c1.O=S(=O)(O)O (stereo partly drawn) [Example 13, D-2-(2-Naphthyl)-2-hydroxyacetyl-L-prolyl-L-arginine aldehyde hemisulfate] | 0.100 |  | 1.13 | 1.00
N=C(N)NCCC[C@@H](C=O)NC(=O)[C@H]1CCCN1C(=O)C(O)c1cccc2ccccc12.N=C(N)NCCC[C@@H](C=O)NC(=O)[C@H]1CCCN1C(=O)C(O)c1cccc2ccccc12.O=S(=O)(O)O (stereo partly drawn) [Example 14, D-2-(1-Naphthyl)-2-hydroxyacetyl-L-prolyl-L-arginine aldehyde hemisulfate] | 0.150 |  | 1.04 | 0.52
